Substitutions are numbered along the chain they refer to.
Legend:
[1] = system: EPSPase; test: Ex-vivo EPSPase activity assay, crude extract; format: biochemical, wide-type Arabidopsis thaliana
Method: (§1) 0.5 g of the seedlings of Ophiopogon japonicus, Liriope spicata, Liriope platyphylla and wide-type Arabidopsis thaliana were weighed, added with 150 ml of an extraction buffer A [containing 100 mmol/L Tris pH 7.5, 1 mmol/L EDTA, 10% (V/V) glycerol, 1 mg/L BSA, 10 mmol/L Vitamin C (Vc), 1 mmol/L benzamidine, 5 mmol/L DTT, and 20 mg/ml PVPP], ground and homogenized, filtered through 6 layers of gauze, and centrifuged at 12000 rpm and 4° C. […] Following the method as described by Lanzetta and Alvarez (1979), the reaction was developed for 30 min by adding 800 μl of malachite green hydrochloride, and then 100 μl of a 34% sodium citrate solution was added. After 30 min, the OD660 value was determined at 660 nm on a spectrophotometer. […] Logistic regression analysis was performed and the ED50 was calculated.

[2] = system: callus of the control Arabidopsis thaliana; test: Callus growth on glyphosate-containing MS medium, control; format: cell-based; details: two weeks, 25° C.
Method: (§2) The transgenic Arabidopsis thaliana plant was obtained by screening. The stem of the tissue cultured seedling of the non-transgenic and the LS-EPSPS transgenic Arabidopsis thaliana was used as an explant for callus induction in an MS medium containing 2.0 mg/L of 6-BA and 0.1 mg/L of NAA. […] The results were statistically calculated after two weeks.

[3] = system: E. Coli BL21 (DE3) transformed with LS-EPSPS-PET; test: Growth (OD) of E. coli strain transformed with LS-EPSPS-PET in glyphosate-containing LB; format: cell-based; details: compared with strain with empty vector PET-28a
Method: The LS-EPSPS gene was cloned into the vector PET-28a, and transferred to E. Coli BL21 (DE3), to obtain a transgenic strain. The reading frame of the transgenic strain was expressed under control of the T7 promoter in the PET system.
The stain transformed with LS-EPSPS-PET or PET-28a (empty vector, control) was incubated in LB, and grown in an LB liquid medium containing Kan at 37° C. when OD600 reached […], until the OD value reached about 0.4. […] These indicate that the LS-EPSPS gene has glyphosate-resistant/tolerant activity.

[4] = system: callus of the transgenic Arabidopsis thaliana; test: Callus growth on glyphosate-containing MS medium, LS-EPSPS transgenic; format: cell-based; details: two weeks, 25° C.
Method: as §2

[5] = target: T1, EPSPase (Liriope muscari (Liriope platyphylla), UniProt A0A0N9BED7); test: Ex-vivo EPSPase activity assay, crude extract; format: biochemical; details: 25° C., 15 min
T1 sequence (A0A0N9BED7 66-518): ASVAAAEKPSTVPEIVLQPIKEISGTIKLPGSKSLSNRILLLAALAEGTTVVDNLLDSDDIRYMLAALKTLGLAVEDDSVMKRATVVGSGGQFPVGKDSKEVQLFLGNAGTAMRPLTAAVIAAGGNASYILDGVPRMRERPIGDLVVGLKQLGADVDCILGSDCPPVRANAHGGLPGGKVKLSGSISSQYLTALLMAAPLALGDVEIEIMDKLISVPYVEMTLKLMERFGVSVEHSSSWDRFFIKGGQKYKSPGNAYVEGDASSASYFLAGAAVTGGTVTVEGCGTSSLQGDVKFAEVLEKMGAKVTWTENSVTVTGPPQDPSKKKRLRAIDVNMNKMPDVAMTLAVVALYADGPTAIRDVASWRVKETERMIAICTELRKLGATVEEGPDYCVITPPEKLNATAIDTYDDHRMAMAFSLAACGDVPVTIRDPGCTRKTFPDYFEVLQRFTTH
Method: as §1

[6] = target: T2, EPSPase (Ophiopogon japonicus, UniProt A0A0N7E509); test: Ex-vivo EPSPase activity assay, crude extract; format: biochemical; details: 25° C., 15 min
T2 sequence (A0A0N7E509 64-516): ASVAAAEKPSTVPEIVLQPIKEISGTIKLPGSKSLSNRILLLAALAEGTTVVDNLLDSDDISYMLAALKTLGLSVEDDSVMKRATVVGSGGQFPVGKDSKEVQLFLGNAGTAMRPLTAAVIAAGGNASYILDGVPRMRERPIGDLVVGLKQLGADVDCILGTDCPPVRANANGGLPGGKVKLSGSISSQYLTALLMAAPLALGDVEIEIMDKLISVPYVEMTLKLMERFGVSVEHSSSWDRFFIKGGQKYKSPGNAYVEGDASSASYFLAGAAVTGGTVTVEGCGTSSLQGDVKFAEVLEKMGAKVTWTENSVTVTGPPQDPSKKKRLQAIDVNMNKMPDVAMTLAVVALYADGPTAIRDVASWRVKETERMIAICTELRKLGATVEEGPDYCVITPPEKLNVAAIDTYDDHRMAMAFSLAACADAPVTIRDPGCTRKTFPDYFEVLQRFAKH
Method: as §1

[7] = target: T3, EPSPase (Liriope spicata, UniProt A0A0N9BED5); test: Ex-vivo EPSPase activity assay, crude extract; format: biochemical; details: 25° C., 15 min
T3 sequence (A0A0N9BED5 66-518): T1 sequence (A0A0N9BED7 66-518) with A74T, S162T, I331V, T404N, G424A
Method: as §1

For `O=C(O)CNCP(=O)(O)O` [glyphosate, N-(phosphonomethyl)glycine], the “glyphosate concentration at which EPSPase activity declines obviously” value ([1]; 25° C., 15 min) was 500 µmol/L, the EC50 ([1]; logistic regression, read-out: ED50 for the EPSPase activity) was 560 µM and the “glyphosate concentration at which callus becomes yellow and gradually mortifies” value [2] was 50 mg·L. The “ED50 value of the strain (logistic regression)” value [3] was “greatly higher than that of the strain with the empty vector PET-28a”, the “glyphosate concentration at which callus can still normally grow” value [4] was 600 mg/L and the “glyphosate concentration at which callus is inhibited in growth and becomes brown and yellow” value [4] was 800 mg/L. The “glyphosate concentration at which EPSPase activity declines obviously” value [5] was 1000 µmol/L, the “glyphosate concentration at which EPSPase activity declines obviously” value [6] was 800 µmol/L and the “glyphosate concentration at which EPSPase activity declines obviously” value [7] was 1000 µmol/L.

From patent publication US9926573B2, “Glyphosate-tolerant gene and use thereof” (priority 2012, dated 2018)
